Measurements taken from article PMC10897476, “Pyridylpiperazine efflux pump inhibitor boosts in vivo antibiotic efficacy against K. pneumoniae” (EMBO Molecular Medicine, 2023).
Read-outs that look alike come from different tables or passages of the source. Marks after values point to notes of the source that are not given here.

How the values were obtained:
Assay type in all cases: cell-based, Klebsiella pneumoniae
[1] = tested on: K. pneumoniae ATCC 43816 (WT); test: MIC of antibiotics with and without EPI (REMA), WT strain; conditions: for MIC: Klebsiella pneumoniae
Protocol: Overnight cultures were diluted to an OD600 = 0.001 in CAMHB followed by addition of efflux pump inhibitors (EPIs) at a final concentration of 100 µM. […] Plates were incubated at 37 °C for up to 20 h. […] MICs were defined as the concentration that prevented 90% of resazurin turnover compared to the non-treated bacteria.

K. pneumoniae AcrB^V448E = test: MIC of antibiotics with and without EPI (REMA), AcrB V448E mutant; conditions: for Minimum Inhibitory Concentration: K. pneumoniae AcrB^V448E; for MIC: Klebsiella pneumoniae, read-out: Minimum Inhibitory Concentration
Protocol: (§1) MIC experiments were carried out according to the CLSI guidelines (CLSI [2023]). Overnight cultures were diluted to an OD600 = 0.001 in CAMHB followed by addition of efflux pump inhibitors (EPIs) at a final concentration of 100 µM. […] Plates were incubated at 37 °C for up to 20 h. Bacterial viability was evaluated using the resazurin microtitre assay (REMA) and measured by fluorescence using a Tecan Spaert multimode plate reader (Ex: 530 nm Em: 590 nm). MICs were defined as the concentration that prevented 90% of resazurin turnover compared to the non-treated bacteria.
(§2) Mutations in acrB or ramR identified in the BDM88855.HCl (1’) resistant mutant (a.k.a., KPJC11) were introduced individually into K. pneumoniae ATCC 43816 chromosome by allelic exchange (Cianfanelli et al, [2020]). Briefly, 1-kb PCR products centred around each point mutation were generated by amplifying acrB with primers RH1251 ([…][…]) and RH1252 ([…][…]) or ramR with primers RH1249 ([…][…]) and RH1250 ([…][…]) from KPJC11 genomic DNA. PCR fragments were cloned into pFOK (Cianfanelli et al, [2020]) using NEB-building kit ([New England Biolabs]) to generate pEP1533 and pEP1534. Correct plasmids were confirmed by sequencing and introduced into K. pneumoniae ATCC43816 WT via conjugation with the MFDpir+ E. coli donor strain. Exconjugants were selected on kanamycin (50 mg/L) plates at 37 °C and plasmid chromosomal integration was checked by PCR. […] The next day, cultures were diluted and plated onto LB agar. Isolated colonies were then patched onto LB plates with or without kanamycin (50 mg/L) and Km^S candidates were evaluated for correct allelic exchange via acrB or ramR sequencing and then WGS to confirm no additional mutations were introduced.

[2] = tested on: K. pneumoniae RamR^mut (K124*stop); test: MIC of antibiotics with and without EPI (REMA), RamR mutant; conditions: for Minimum Inhibitory Concentration: K. pneumoniae RamR^mut; for MIC: Klebsiella pneumoniae, read-out: Minimum Inhibitory Concentration
Protocol: as §1, §2

[3] = tested on: K. pneumoniae AcrB^V448E RamR^mut; test: MIC of antibiotics with and without EPI (REMA), double mutant; conditions: for Minimum Inhibitory Concentration: K. pneumoniae AcrB^V448E RamR^mut; for MIC: Klebsiella pneumoniae, read-out: Minimum Inhibitory Concentration
Protocol: as §1

[4] = K. pneumoniae WT, + 100 µM PAβN
[5] = ATCC43816, K. pneumoniae WT, No EPI, read-out: Minimum Inhibitory Concentration

SMILES | Minimum Inhibitory Concentration ([1]; K. pneumoniae WT, + 100 µM 1') | Minimum Inhibitory Concentration ([1]; K. pneumoniae WT, + 100 µM 5) | Minimum Inhibitory Concentration [1, 4] | Minimum Inhibitory Concentration (K. pneumoniae AcrB^V448E; + 100 µM 1') | Minimum Inhibitory Concentration (K. pneumoniae AcrB^V448E; + 100 µM 5) | Minimum Inhibitory Concentration (K. pneumoniae AcrB^V448E; + 100 µM PAβN) | MIC (K. pneumoniae AcrB^V448E) | Minimum Inhibitory Concentration ([2]; + 100 µM 1') | Minimum Inhibitory Concentration ([2]; + 100 µM 5) | Minimum Inhibitory Concentration ([2]; + 100 µM PAβN) | MIC [2] | Minimum Inhibitory Concentration ([3]; + 100 µM 1') | Minimum Inhibitory Concentration ([3]; + 100 µM 5) | Minimum Inhibitory Concentration ([3]; + 100 µM PAβN) | MIC [3] | MIC [1, 5] | Minimum Inhibitory Concentration (K. pneumoniae AcrB^V448E; No EPI) | Minimum Inhibitory Concentration ([2]; No EPI) | Minimum Inhibitory Concentration ([3]; No EPI) | also measured
CN(C)[C@@H]1C(O)=C(C(N)=O)C(=O)[C@@]2(O)C(O)=C3C(=O)c4c(O)cccc4[C@@](C)(O)[C@H]3C[C@@H]12 [Tetracycline] | 0.4^# mg/L | 0.4^# mg/L | 1.3 mg/L | 0.8^# mg/L | 0.7^# mg/L | 2.7 mg/L | 1.9 µg/mL | 1.1^# mg/L | 0.7^# mg/L | 4.3^# mg/L | 8.5 µg/mL | 11 mg/L | 8.5 mg/L | 4.3^# mg/L | 11 µg/mL |  |  |  |  | MIC ([1]; ATCC43816, read-out: Minimum Inhibitory Concentration): 0.8 µg/mL
Cc1onc(-c2ccccc2)c1C(=O)N[C@@H]1C(=O)N2[C@@H]1SC(C)(C)[C@@H]2C(=O)O [Oxacillin] | 32^# mg/L | 43^# mg/L |  |  |  |  |  |  |  |  |  |  |  |  |  |  |  |  |  | 
CO[C@@H]1[C@@H](OC(N)=O)[C@@H](O)[C@H](Oc2ccc3c(O)c(NC(=O)c4ccc(O)c(CC=C(C)C)c4)c(=O)oc3c2C)OC1(C)C [Novobiocin] | 13^# mg/L | 13^# mg/L | 11^# mg/L | 64^# mg/L | 32^# mg/L | 16^# mg/L |  | 128 mg/L | 85 mg/L | 43^# mg/L |  | 128 mg/L | 128 mg/L | 8^# mg/L |  | 64 µg/mL | 128 mg/L | 128 mg/L | 128 mg/L | 
C[C@H]1[C@H](NC(=O)/C(=N\OC(C)(C)C(=O)O)c2csc(N)n2)C(=O)N1S(=O)(=O)O [Aztreonam] | 0.11 mg/L | 0.11 mg/L | 0.16 mg/L | 0.16 mg/L | 0.21 mg/L | 0.32 mg/L | 0.13 µg/mL | 0.32 mg/L | 0.27 mg/L | 0.53 mg/L | 0.43 µg/mL | 0.53 mg/L | 0.75 mg/L | 0.53 mg/L | 0.53 µg/mL | 0.07 µg/mL |  |  |  | 
O=C(N[C@H](CO)[C@H](O)c1ccc([N+](=O)[O-])cc1)C(Cl)Cl [Chloramphenicol] | 1.0^# mg/L | 1.0^# mg/L | 1.7^# mg/L | 2.0^# mg/L | 4.7 mg/L | 2.0^# mg/L | 6.7 µg/mL | 2.7^# mg/L | 4.7^# mg/L | 2.7^# mg/L | 53 µg/mL | 128 mg/L | 128 mg/L | 5.3^# mg/L |  | 4 µg/mL |  |  | 128 mg/L | 
CC(=O)NC[C@H]1CN(c2ccc(N3CCOCC3)c(F)c2)C(=O)O1 [Linezolid] | 13^# mg/L | 27^# mg/L | 64^# mg/L | 85 mg/L | 128 mg/L | 64^# mg/L |  | 128 mg/L | 107 mg/L | 128 mg/L |  | 128 mg/L | 128 mg/L | 128 mg/L |  | 128 µg/mL | 128 mg/L | 128 mg/L | 128 mg/L | 
C[C@@H](O)[C@H]1C(=O)N2C(C(=O)O)=C(S[C@@H]3CN[C@H](C(=O)N(C)C)C3)[C@H](C)[C@H]12 [Meropenem] | 0.50 mg/L | 0.50 mg/L | 0.50 mg/L | 0.67 mg/L | 0.50 mg/L | 0.50 mg/L | 0.5 µg/mL | 0.50 mg/L | 0.50 mg/L | 0.50 mg/L | 0.5 µg/mL | 0.50 mg/L | 0.50 mg/L | 1.0 mg/L | 0.67 µg/mL | 0.5 µg/mL |  |  |  | 
CC[C@H]1OC(=O)[C@H](C)[C@@H](O[C@H]2C[C@@](C)(OC)[C@@H](O)[C@H](C)O2)[C@H](C)[C@@H](O[C@@H]2O[C@H](C)C[C@H](N(C)C)[C@H]2O)[C@](C)(O)C[C@@H](C)CN(C)[C@H](C)[C@@H](O)[C@]1(C)O [Azithromycin] | 2.7^# mg/L | 2.0^# mg/L | 0.5^# mg/L | 6.7^# mg/L | 11^# mg/L | 0.5^# mg/L | 21 µg/mL | 11^# mg/L | 3.3^# mg/L | 0.7^# mg/L | 37 µg/mL | 37 mg/L | 21 mg/L | 0.7^# mg/L | 21 µg/mL | 16 µg/mL |  |  |  | boosting of antibiotic activity in combination with EPIs ([1]; Table 2): at least 8 fold
CO/N=C(\C(=O)N[C@@H]1C(=O)N2C(C(=O)[O-])=C(C[N+]3(C)CCCC3)CS[C@H]12)c1csc(N)n1 [Cefepime] | 0.05 mg/L | 0.05 mg/L | 0.21 mg/L | 0.05 mg/L | 0.04 mg/L | 0.64 mg/L | 0.06 µg/mL | 0.64 mg/L | 0.11^# mg/L | 0.64 mg/L | 0.53 µg/mL | 0.85 mg/L | 0.96 mg/L | 0.85 mg/L | 0.75 µg/mL | 0.09 µg/mL |  |  |  | 
CC(=O)O[C@H]1C[C@@]2(C)[C@@H](C[C@@H](O)[C@H]3[C@@]4(C)CC[C@@H](O)[C@@H](C)[C@@H]4CC[C@@]32C)/C1=C(\CCC=C(C)C)C(=O)O [Fusidic acid] | 85 mg/L | 128 mg/L | 21^# mg/L | 128 mg/L | 128 mg/L | 32^# mg/L |  | 128 mg/L | 128 mg/L | 85 mg/L |  | 128 mg/L | 128 mg/L | 107 mg/L |  | 128 µg/mL | 128 mg/L | 128 mg/L | 128 mg/L | 
